Reference: patent publication US20170298055A1, “sGC STIMULATORS” (IRONWOOD PHARMACEUTICALS, INC., priority 2014, published 2017)

How the values were obtained:
NO-deficient rats = settings: cited from earlier work
obese mice = settings: cited from earlier work
[1] = system: Guinea pig tracheal smooth muscle; assay: Electrical field stimulated guinea pig tracheal smooth muscle contraction (ex vivo); settings: sub-maximal EFS, cumulative dose response curve, three animals pooled; read-out: IC50, inhibition of EFS-induced tracheal smooth muscle contraction
From the text: On each experimental day, a guinea pig is killed by exposure to a rising concentration of CO2 and the trachea removed. The trachea is cleaned of extraneous tissue and cut open longitudinally in a line opposite the muscle, opened out and cut into strips 2-3 cartilage rings wide. A cotton loop is attached to one end of each tracheal strip and a length of cotton to the other end. Tracheal strips are then suspended between two platinum electrodes, using tissue holders, in a Myobath system (World Precision Instruments Stevenage, UK). […] Tissues are washed with Kreb's buffer and stimulated using the previously determined sub-maximal voltage for 1 hour to establish a stable baseline contraction prior to assessment of compound activity.
A cumulative dose response curve (DRC) to each test substance is then performed and changes in smooth muscle contraction measured. The effect of each test substance in each experiment is expressed as a percentage inhibition of the baseline contraction, normalized to the relevant vehicle controls. […] The data from all three experiments are pooled, the DRC plotted, and the test substance potency and efficacy determined.

SMILES: Nc1nc(-c2nn(Cc3ccccc3F)c3ncccc23)ncc1C1CC1 [BAY-2272]
- effect on bladder dysfunction (NO-deficient rats): protective effects

SMILES: O=C(O)CCCCN(CCc1cc(F)ccc1OCc1ccc(-c2ccc(C(F)(F)F)cc2)cc1)Cc1ccc(C(=O)O)cc1 [BAY 60-2770]
- effect on overactive bladder (obese mice): ameliorates overactive bladder in obese mice

SMILES: CC(C)[N+]1(C)[C@@H]2CC[C@H]1CC(OC(=O)C(CO)c1ccccc1)C2 (stereo partly drawn) [Ipratropium bromide]
- IC50 [1]: 860 pM
